This note sets out measurements from US9120749B2, “Quinoline derivatives and MELK inhibitors containing the same” (ONCOTHERAPY SCIENCE, INC., priority 2010, dated 2015).

Where a name gives a salt, the structure may show the parent alone. Read-outs that look alike come from different tables or passages of the source.

The subject of assay [1] is T47D cells. Description: Cell-based assay: anti-proliferative activity, Cell Counting Kit-8, 72 hours (T47D). Conditions: 72 hours. The method, boiled down: (§1)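 Proliferation read with Cell Counting Kit-8 after 72 hours of inhibitor treatment, from seeding of 2,000–3,000 cells/well. Lines: T47D, A549, BT-549; HT-1197, lacking MELK by western blot, served as negative control. IC50 derived.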

The test system of assay [2] is 22Rv1 cells. Nature of the assay: Cell-based assay: anti-proliferative activity, Cell Counting Kit-8, 72 hours (22Rv1). The note with it: Homo sapiens.
For assay [3], the system named is HT-1197 cells. Nature of the assay: Cell-based assay: anti-proliferative activity, Cell Counting Kit-8, 72 hours (HT-1197, negative control without MELK expression). Conditions: HT1197 cells (negative control, no MELK expression), 72 hours. The method, boiled down: as §1
Assay [4] deals with MELK (Homo sapiens, UniProt Q14680). Nature of the assay: Kinase assay: MELK activity, phosphorylation of FITC-labeled histone H3 peptide measured by IMAP fluorescence polarization. In kind it is biochemical. Conditions: read-out: IC50 (μM) (kinase assay). The method, boiled down:
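Fluorescence polarization was measured 0.5 h (room temperature) after quenching with threefold volume of progressive binding solution. Test compounds from 12.5 mM DMSO stocks were assayed at 1% DMSO.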

The subject of assay [5] is DU4475 cells. Description: Cell-based assay: anti-proliferative activity, Cell Counting Kit-8, 72 hours (DU4475).
The test system of assay [6] is A549 cells. Description: Cell-based assay: anti-proliferative activity, Cell Counting Kit-8, 72 hours (A549). Conditions: 72 hours. The method, boiled down: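 Cell Counting Kit-8 read-out of A549 growth after 72 hours of inhibitor exposure, cells plated in 96-well format. Values reported as IC50.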

MELK, sequence (Q14680 whole entry, looked up): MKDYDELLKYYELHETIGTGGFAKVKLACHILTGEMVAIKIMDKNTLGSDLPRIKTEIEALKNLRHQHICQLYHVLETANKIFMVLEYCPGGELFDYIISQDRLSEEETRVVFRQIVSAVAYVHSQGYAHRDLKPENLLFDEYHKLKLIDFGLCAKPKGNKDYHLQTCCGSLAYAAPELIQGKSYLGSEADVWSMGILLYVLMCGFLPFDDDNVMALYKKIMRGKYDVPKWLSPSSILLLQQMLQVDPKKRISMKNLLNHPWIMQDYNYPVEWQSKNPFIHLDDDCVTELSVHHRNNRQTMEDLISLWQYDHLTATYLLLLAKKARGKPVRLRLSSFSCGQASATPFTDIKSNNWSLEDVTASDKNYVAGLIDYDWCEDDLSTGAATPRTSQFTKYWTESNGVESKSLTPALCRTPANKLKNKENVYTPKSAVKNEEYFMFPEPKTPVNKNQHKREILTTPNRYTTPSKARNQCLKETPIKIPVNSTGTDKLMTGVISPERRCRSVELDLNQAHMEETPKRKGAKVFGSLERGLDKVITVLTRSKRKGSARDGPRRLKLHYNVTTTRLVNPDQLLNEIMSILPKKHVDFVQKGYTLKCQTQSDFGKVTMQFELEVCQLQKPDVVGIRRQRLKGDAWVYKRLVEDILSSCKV

In the case of `CC(=O)c1cnc2ccc(-c3cc(F)c(O)c(Cl)c3)cc2c1Nc1ccc(N2CCCC(N)C2)nc1` (stereo not drawn) [Example 733, 1-(4-(6-(3-aminopiperidin-1-yl)pyridin-3-ylamino)-6-(3-chloro-5-fluoro-4-hydroxyphenyl)quinolin-3-yl)ethanone], the IC50 worked out at 0.0035 µM in assay [1]; 0.0064 µM in assay [2]; 0.064 µM in assay [3]; 0.00099 µM in assay [4]; 0.01 µM in assay [5]; 0.0086 µM in assay [6].
As for `CC(=O)c1cnc2ccc(-c3cc(Cl)c(O)c(Cl)c3)cc2c1Nc1ccc(CN2CCN(C)CC2)cc1` [Example 655, 1-(6-(3,5-dichloro-4-hydroxyphenyl)-4-(4-((4-methylpiperazin-1-yl)methyl)phenylamino)quinolin-3-yl)ethanone hydrochloride], the IC50 is 0.072 µM in assay [1] (hydrochloride); 0.18 µM in assay [2]; 7.8 µM in assay [3] (hydrochloride); 0.0029 µM in assay [4] (hydrochloride); 0.097 µM in assay [5] (hydrochloride); 0.23 µM in assay [6] (hydrochloride).
`CCC(=O)c1cnc2ccc(-c3cc(Cl)c(O)c(Cl)c3)cc2c1N[C@H]1CC[C@H](CN(C)C)CC1` [Example 716, 1-(6-(3,5-dichloro-4-hydroxyphenyl)-4-((trans-4-((dimethylamino)methyl)cyclohexyl)amino)quinolin-3-yl)propan-1-one dihydrochloride]: the IC50 stood at 0.14 µM in assay [1] (dihydrochloride); 0.14 µM in assay [2]; 0.82 µM in assay [3] (dihydrochloride); 0.0016 µM in assay [4] (dihydrochloride); 0.055 µM in assay [5] (dihydrochloride); 0.12 µM in assay [6] (dihydrochloride).
